The record followed here is ChEMBL document CHEMBL3085695, “Novel state-dependent voltage-gated sodium channel modulators, based on marine alkaloids from Agelas sponges” (Eur J Med Chem, 2013).

Experiment [1] has as its target Sodium channel protein type 5 subunit alpha (Homo sapiens, UniProt Q14524). Nature of the experiment: Modulation of human Nav1.5 by automated patch clamp electrophysiology assay. For orientation: In patch-clamp work, channel activity is measured electrically.
In experiment [2] the target is Sodium channel protein type 9 subunit alpha (Homo sapiens, UniProt Q15858). Nature of the experiment: Modulation of human Nav1.7 by automated patch clamp electrophysiology assay.
Experiment [3] concerns the target Sodium channel protein type 4 subunit alpha (Homo sapiens, UniProt P35499). Nature of the experiment: Modulation of human Nav1.4 by automated patch clamp electrophysiology assay.
Experiment [4] deals with Sodium channel protein type 3 subunit alpha (Homo sapiens, UniProt Q9NY46). As to the kind of experiment: Modulation of human Nav1.3 by automated patch clamp electrophysiology assay.

As usually defined, the IC50 is the midpoint of a concentration-inhibition curve.

Chain of Sodium channel protein type 9 subunit alpha (Q15858 whole entry): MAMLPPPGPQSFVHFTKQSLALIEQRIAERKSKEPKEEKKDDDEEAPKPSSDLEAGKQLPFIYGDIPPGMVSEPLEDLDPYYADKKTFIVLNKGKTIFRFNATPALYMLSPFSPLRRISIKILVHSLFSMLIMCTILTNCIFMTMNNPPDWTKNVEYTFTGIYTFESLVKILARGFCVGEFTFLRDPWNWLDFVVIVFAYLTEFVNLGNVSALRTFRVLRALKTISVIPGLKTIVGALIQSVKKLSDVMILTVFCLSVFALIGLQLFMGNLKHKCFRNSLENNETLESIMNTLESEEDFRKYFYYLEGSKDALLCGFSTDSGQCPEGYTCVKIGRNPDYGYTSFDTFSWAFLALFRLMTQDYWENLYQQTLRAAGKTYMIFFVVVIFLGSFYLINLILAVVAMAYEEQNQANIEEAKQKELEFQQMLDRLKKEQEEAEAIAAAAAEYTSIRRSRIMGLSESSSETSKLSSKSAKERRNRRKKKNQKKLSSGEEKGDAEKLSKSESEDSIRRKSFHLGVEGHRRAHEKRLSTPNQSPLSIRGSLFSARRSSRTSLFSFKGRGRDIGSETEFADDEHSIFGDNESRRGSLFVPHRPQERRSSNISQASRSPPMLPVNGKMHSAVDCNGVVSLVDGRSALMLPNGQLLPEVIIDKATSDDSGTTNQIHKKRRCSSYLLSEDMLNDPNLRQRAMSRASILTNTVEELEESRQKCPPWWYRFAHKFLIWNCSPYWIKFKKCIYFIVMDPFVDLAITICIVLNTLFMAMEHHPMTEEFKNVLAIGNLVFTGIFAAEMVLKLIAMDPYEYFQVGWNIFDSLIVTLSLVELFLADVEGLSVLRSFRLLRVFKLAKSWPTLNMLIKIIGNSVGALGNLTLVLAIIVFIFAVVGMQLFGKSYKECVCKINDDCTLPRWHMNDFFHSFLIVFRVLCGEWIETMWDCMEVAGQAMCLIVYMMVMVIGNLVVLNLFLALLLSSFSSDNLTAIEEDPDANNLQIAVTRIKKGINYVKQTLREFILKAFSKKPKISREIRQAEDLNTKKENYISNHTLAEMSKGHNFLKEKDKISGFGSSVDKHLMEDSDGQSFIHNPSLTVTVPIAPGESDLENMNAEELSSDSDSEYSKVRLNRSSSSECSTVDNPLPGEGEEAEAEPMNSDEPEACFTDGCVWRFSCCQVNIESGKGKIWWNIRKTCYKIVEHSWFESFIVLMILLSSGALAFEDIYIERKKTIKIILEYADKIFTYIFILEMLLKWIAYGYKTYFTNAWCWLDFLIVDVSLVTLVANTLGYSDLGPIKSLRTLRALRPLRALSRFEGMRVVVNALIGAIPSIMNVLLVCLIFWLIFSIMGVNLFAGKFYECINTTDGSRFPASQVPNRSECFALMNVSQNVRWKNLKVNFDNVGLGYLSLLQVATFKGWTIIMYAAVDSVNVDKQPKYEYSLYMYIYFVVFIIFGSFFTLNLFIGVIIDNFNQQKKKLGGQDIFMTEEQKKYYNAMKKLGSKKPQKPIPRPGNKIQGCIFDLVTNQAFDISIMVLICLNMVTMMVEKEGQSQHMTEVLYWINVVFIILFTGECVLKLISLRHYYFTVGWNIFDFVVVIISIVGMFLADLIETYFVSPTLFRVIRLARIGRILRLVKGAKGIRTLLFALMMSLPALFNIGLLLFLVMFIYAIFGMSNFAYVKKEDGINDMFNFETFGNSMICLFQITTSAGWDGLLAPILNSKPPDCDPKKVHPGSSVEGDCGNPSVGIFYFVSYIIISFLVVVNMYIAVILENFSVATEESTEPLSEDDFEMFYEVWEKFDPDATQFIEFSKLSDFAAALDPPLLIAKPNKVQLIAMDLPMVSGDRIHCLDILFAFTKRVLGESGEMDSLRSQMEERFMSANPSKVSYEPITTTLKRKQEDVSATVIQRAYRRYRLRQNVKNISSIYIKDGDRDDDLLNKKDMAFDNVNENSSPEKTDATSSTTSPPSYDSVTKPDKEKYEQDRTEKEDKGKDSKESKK
Chain of Sodium channel protein type 5 subunit alpha (Q14524 whole entry): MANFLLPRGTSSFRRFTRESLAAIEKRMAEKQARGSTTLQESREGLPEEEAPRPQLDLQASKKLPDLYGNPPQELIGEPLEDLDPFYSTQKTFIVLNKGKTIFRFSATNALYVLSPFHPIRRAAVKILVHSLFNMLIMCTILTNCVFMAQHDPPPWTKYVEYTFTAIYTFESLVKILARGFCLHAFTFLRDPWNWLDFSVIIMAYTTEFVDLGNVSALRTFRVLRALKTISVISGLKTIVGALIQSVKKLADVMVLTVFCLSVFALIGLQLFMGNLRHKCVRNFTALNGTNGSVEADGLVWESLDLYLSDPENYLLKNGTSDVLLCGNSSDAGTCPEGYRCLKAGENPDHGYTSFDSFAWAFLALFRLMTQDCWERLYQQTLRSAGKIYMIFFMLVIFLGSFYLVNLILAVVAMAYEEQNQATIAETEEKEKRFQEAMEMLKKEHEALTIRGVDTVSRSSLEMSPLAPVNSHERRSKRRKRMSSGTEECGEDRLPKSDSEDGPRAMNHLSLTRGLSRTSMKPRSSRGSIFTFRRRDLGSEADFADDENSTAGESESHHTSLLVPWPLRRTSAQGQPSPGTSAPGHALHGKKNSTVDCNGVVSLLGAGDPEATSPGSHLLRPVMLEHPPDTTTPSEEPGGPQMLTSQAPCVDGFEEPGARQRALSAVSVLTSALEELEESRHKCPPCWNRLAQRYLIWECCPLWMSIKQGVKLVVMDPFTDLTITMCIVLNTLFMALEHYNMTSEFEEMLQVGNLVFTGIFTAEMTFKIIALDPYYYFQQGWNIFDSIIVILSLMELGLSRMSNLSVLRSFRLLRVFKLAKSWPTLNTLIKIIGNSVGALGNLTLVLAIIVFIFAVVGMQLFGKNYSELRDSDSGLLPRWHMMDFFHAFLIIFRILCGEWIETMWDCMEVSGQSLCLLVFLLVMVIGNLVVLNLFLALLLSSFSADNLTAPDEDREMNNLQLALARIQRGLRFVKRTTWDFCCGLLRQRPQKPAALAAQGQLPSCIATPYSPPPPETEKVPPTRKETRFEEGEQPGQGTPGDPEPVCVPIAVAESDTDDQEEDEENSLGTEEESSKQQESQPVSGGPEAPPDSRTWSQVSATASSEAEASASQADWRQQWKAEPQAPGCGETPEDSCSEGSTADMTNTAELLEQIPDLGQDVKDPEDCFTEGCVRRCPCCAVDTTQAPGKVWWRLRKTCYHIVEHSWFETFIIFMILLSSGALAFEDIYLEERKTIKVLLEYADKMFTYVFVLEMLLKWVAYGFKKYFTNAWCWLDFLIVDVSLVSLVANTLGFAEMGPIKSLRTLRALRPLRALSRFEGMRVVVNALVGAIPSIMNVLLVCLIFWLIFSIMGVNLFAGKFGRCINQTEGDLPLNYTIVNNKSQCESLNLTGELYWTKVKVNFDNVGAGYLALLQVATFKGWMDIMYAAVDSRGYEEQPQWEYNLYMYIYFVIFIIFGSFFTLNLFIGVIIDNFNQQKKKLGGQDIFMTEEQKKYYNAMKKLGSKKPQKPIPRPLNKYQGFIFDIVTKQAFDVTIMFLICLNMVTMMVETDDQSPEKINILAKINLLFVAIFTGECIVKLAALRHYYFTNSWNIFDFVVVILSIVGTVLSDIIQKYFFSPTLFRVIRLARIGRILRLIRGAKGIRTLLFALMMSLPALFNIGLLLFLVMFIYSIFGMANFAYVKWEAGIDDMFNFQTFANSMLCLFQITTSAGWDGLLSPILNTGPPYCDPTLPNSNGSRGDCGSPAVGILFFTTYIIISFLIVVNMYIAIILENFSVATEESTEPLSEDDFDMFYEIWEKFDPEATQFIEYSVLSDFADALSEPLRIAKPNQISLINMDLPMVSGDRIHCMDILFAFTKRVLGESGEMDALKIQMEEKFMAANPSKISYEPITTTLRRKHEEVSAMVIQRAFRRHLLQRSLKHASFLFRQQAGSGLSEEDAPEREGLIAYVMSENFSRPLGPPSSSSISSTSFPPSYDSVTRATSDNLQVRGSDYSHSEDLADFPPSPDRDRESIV

Regarding `Nc1nc2c(s1)C[C@@H](NC(=O)[C@@H]1CCCN1)CC2`, the half-maximal inhibitory concentration (IC50) is more than 30 µM in experiment [1], more than 30 µM in experiment [2], 25 µM in experiment [3] and more than 30 µM in experiment [4].

With `Nc1nc2c(s1)CC(CNC(=O)c1cc3ccccc3[nH]1)CC2` (stereo unspecified), the IC50 in experiment [1] is more than 30 µM; in experiment [2], 23 µM; in experiment [3], 21 µM; in experiment [4] it was 16 µM.

As to `Nc1nc2c(s1)CC(CNC(=O)[C@@H]1CCCN1)CC2` (stereo partly specified), the concentration for half-maximal inhibition (IC50) in experiment [1], in experiment [2], in experiment [3] and in experiment [4] was more than 30 µM each time.

As for `Nc1nc2c(s1)C[C@@H](NC(=O)c1cc(Br)c[nH]1)CC2`, the IC50 was 21 µM in experiment [1], 18 µM in experiment [2], more than 30 µM in experiment [3] and 26 µM in experiment [4].

On to `Nc1nc2c(s1)C[C@@H](NC(=O)c1cc3ccccc3[nH]1)CC2`, for which the IC50 in experiment [1] is more than 30 µM; in experiment [2], 29 µM; in experiment [3] it was 16 µM; in experiment [4] it was more than 30 µM.

As for `Nc1nc2c(s1)C[C@@H](NC(=O)c1ccc[nH]1)CC2`, the half-maximal inhibitory concentration (IC50) in experiment [1] was more than 30 µM; in experiment [2], 21 µM; in experiment [3] it was more than 30 µM; in experiment [4] it was more than 30 µM.

Turning to `CC(C)(C)OC(=O)N1CCC[C@H]1C(=O)NCC1CCc2nc(N)sc2C1` (stereo partly specified), the 50% inhibitory concentration (IC50) is 20 µM in experiment [1], more than 30 µM in experiment [2], more than 30 µM in experiment [3] and 26 µM in experiment [4].

Take `Nc1nc2c(s1)CC(CNC(=O)c1cc(Br)c(Br)[nH]1)CC2` (stereo unspecified): the IC50 is more than 30 µM in experiment [1], 23 µM in experiment [2], more than 30 µM in experiment [3] and 18 µM in experiment [4].

Take `Nc1nc2c(s1)CC(CNC(=O)c1ccc[nH]1)CC2` (stereo unspecified): the IC50 is 21 µM in experiment [1], 20 µM in experiment [2], more than 30 µM in experiment [3] and 28 µM in experiment [4].

As to `Nc1nc2c(s1)C[C@@H](NCc1ccc[nH]1)CC2`, the IC50 in experiment [1] was more than 30 µM; in experiment [2], 21 µM; in experiment [3] it was 30 µM; in experiment [4], 25 µM.

Turning to `Nc1nc2c(s1)C[C@@H](NC(=O)c1cc(Br)c(Br)[nH]1)CC2`, the half-maximal inhibitory concentration (IC50) in experiment [1] was more than 30 µM; in experiment [2], 16 µM; in experiment [3], 15 µM; in experiment [4], 26 µM.

In the case of `CC(C)(C)OC(=O)N1CCC[C@H]1C(=O)N[C@H]1CCc2nc(N)sc2C1`, the half-inhibitory concentration (IC50) in experiment [1] is more than 30 µM; in experiment [2] it was more than 30 µM; in experiment [3], 8 µM; in experiment [4], more than 30 µM.

Turning to `Nc1nc2c(s1)C[C@@H](NC(=O)c1ccco1)CC2`, the 50% inhibitory concentration (IC50) was more than 30 µM in experiment [1], more than 30 µM in experiment [2], more than 30 µM in experiment [3] and 27 µM in experiment [4].

As to `Cn1cccc1C(=O)N[C@H]1CCc2nc(N)sc2C1`, the IC50 is more than 30 µM in experiment [1], more than 30 µM in experiment [2], 16 µM in experiment [3] and 24 µM in experiment [4].
